Consider seven compounds from ChEMBL document CHEMBL3414527, “Engineering potent and selective analogues of GpTx-1, a tarantula venom peptide antagonist of the Na(V)1.7 sodium channel” (J Med Chem, 2015).

Bridge positions count the residues as written; N and C are the ends. Peptide text beside a SMILES is read from it. Bounds are passed on as bounds.

Broadly, the IC50 is the concentration at which inhibition is half-maximal.

Series [1] deals with Sodium channel protein type 5 subunit alpha (Homo sapiens, UniProt Q14524). In words: Inhibition of human NaV1.5 at -140 mV holding potential by whole-cell patch clamp assay.
In series [2] the target is Sodium channel protein type 4 subunit alpha (Homo sapiens, UniProt P35499). The series can be described thus: Inhibition of human NaV1.4 at -140 mV holding potential by whole-cell patch clamp assay.
The target of series [3] is T1, Sodium channel protein type 9 subunit alpha (Homo sapiens, UniProt Q15858). The series can be described thus: Inhibition of human NaV1.7 at -140 mV holding potential by whole-cell patch clamp assay. For orientation: In patch-clamp work, channel activity is measured electrically.
Series [4] deals with Sodium channel protein type 9 subunit alpha (Mus musculus, UniProt Q62205). In words: Inhibition of NaV1.7 in C57BL/6 mouse DRG neurons at -140 mV holding potential by whole-cell patch clamp assay.
Series [5] concerns the target T1, Sodium channel protein type 9 subunit alpha. In words: Inhibition of human NaV1.7 by patchXpress 700A electrophysiology method.
Series [6] can be described thus: Stability in human plasma assessed as intact compound remaining at 37 degC after 24 hrs by LC-MS method. The class given is ADME, cell-free. Particulars: read-out: Stability.
Series [7] is described as follows: Stability in mouse plasma assessed as intact compound remaining at 37 degC after 24 hrs by LC-MS method. In kind it is ADME, cell-free. The note with it: read-out: Stability.

Chain of Sodium channel protein type 4 subunit alpha (P35499 whole entry): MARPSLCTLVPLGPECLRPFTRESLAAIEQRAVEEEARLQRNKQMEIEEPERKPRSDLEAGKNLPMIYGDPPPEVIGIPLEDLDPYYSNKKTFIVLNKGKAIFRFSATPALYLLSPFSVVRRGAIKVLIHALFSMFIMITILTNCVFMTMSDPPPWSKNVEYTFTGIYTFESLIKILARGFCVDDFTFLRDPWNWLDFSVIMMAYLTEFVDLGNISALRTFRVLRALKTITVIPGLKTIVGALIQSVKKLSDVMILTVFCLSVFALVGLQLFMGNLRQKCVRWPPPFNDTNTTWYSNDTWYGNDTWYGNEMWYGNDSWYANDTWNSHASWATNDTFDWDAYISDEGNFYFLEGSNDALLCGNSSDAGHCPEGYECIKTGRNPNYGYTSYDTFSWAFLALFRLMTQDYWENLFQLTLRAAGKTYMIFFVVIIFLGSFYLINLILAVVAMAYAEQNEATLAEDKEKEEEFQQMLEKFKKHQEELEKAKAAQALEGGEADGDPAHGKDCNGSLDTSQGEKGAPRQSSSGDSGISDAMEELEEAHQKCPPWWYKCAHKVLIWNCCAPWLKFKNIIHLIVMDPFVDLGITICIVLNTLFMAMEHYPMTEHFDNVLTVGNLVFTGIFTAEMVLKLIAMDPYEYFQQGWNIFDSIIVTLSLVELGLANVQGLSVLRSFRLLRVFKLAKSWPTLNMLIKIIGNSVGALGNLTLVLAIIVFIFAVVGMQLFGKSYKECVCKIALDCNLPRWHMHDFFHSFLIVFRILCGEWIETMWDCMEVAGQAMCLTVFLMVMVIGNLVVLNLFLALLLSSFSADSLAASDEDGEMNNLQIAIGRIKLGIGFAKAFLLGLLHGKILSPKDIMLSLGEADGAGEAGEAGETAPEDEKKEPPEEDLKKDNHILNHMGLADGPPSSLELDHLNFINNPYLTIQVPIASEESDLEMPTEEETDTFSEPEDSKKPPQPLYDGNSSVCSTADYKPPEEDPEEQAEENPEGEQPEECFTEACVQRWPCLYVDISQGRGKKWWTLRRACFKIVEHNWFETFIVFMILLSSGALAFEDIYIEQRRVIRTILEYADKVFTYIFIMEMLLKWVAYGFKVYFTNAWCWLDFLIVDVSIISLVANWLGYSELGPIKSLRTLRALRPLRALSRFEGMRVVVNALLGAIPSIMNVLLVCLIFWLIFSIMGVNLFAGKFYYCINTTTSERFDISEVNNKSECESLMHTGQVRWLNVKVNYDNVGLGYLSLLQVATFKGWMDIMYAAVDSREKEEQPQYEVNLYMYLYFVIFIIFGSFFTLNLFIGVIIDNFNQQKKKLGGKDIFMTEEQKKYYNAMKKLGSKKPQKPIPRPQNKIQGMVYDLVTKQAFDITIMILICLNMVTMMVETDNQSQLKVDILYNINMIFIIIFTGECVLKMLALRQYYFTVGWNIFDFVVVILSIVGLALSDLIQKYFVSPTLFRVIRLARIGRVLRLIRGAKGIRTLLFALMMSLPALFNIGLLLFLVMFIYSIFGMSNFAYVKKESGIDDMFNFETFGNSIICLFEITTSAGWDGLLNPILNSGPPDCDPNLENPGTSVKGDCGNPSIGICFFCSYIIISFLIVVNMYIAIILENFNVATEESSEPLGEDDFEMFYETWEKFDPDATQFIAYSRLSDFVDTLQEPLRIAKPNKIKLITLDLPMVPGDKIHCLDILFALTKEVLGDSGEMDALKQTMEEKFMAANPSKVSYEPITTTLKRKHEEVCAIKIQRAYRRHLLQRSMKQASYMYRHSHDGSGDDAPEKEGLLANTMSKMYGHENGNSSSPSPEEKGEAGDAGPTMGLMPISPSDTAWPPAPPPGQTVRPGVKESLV
Chain of Sodium channel protein type 5 subunit alpha (Q14524 whole entry): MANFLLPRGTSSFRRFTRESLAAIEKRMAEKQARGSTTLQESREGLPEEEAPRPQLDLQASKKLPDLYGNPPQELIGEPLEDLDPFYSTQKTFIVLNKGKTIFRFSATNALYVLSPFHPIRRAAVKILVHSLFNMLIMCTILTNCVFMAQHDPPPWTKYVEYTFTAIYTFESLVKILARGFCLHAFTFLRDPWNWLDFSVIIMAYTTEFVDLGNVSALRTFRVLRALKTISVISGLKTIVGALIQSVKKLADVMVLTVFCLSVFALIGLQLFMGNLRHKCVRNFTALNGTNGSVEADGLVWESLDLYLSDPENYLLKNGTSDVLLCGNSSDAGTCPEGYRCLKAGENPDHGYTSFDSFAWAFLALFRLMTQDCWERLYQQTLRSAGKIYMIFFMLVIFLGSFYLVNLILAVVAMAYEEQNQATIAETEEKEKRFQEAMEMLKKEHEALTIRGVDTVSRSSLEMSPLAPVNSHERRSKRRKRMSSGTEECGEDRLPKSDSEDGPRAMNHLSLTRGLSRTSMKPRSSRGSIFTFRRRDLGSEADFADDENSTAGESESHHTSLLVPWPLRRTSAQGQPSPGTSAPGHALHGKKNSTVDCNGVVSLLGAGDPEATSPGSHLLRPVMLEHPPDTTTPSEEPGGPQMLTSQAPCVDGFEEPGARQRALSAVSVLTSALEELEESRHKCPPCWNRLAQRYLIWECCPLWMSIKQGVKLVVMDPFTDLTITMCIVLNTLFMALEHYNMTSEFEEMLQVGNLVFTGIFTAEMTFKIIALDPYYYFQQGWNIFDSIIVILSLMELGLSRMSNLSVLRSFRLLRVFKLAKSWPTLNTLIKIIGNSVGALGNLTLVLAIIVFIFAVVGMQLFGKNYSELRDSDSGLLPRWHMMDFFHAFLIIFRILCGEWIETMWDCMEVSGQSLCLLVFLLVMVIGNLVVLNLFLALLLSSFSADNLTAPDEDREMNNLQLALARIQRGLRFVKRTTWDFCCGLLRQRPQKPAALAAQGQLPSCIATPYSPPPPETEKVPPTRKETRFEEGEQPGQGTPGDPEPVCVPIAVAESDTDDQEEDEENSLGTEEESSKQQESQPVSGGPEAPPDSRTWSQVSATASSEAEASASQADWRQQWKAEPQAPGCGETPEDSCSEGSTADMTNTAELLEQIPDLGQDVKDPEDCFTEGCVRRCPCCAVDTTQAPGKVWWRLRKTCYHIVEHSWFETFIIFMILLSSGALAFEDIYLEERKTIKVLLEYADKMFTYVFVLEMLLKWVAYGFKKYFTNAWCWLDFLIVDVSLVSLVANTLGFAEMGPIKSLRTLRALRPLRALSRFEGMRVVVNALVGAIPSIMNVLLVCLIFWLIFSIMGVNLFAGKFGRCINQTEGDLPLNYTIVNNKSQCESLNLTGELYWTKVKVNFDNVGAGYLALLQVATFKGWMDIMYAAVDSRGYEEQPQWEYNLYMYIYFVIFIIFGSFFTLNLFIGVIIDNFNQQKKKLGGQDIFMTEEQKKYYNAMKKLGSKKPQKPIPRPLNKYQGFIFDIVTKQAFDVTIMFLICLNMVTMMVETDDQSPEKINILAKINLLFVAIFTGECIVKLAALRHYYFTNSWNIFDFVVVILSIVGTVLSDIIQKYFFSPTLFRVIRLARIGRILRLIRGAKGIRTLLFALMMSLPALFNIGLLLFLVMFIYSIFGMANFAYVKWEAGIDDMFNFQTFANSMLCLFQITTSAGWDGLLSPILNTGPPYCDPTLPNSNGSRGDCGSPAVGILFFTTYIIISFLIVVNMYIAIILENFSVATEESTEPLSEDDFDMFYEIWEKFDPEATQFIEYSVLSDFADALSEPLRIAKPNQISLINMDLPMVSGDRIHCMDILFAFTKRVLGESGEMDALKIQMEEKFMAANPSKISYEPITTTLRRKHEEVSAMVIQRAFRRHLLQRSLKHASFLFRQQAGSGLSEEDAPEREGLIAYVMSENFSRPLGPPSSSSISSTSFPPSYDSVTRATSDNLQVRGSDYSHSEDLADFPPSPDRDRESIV

For the compound `CSCC[C@@H]1NC(=O)CNC(=O)[C@H](CCC(=O)O)NC(=O)[C@@H]2CSSC[C@H](NC(=O)[C@@H](N)Cc3ccc(O)cc3)C(=O)N[C@@H](CCC(N)=O)C(=O)N[C@@H](CCCCN)C(=O)N[C@@H](Cc3c[nH]c4ccccc34)C(=O)N[C@@H](CCSC)C(=O)N[C@@H](Cc3c[nH]c4ccccc34)C(=O)N[C@@H]([C@@H](C)O)C(=O)N[C@H]3CSSC[C@H](NC(=O)[C@H](C(C)C)NC1=O)C(=O)N[C@@H](CCCNC(=N)N)C(=O)N[C@@H](CC(C)C)C(=O)N[C@@H](Cc1c[nH]c4ccccc14)C(=O)N[C@H](C(=O)N[C@@H](CCCCN)C(=O)N[C@@H](CCCCN)C(=O)N[C@@H](CCCCN)C(=O)N[C@@H](CC(C)C)C(=O)N[C@@H](Cc1c[nH]c4ccccc14)C(=O)O)CSSC[C@H](NC(=O)[C@H](CCCCN)NC(=O)[C@H](CCCNC(=N)N)NC(=O)[C@H](CCC(=O)O)NC(=O)[C@H](CO)NC(=O)[C@H](CC(=O)O)NC3=O)C(=O)N2`, the half-maximal inhibitory concentration (IC50) was found to be 90 nM in series [1] and 30 nM in series [2].
For `CC[C@H](C)[C@H](NC(=O)[C@H](CCC(N)=O)NC(=O)[C@H](Cc1ccc(O)cc1)NC(=O)[C@H](CCCCN)NC(=O)[C@@H]1CSSC[C@@H]2NC(=O)[C@H](CCC(N)=O)NC(=O)[C@H](CC(=O)O)NC(=O)[C@H](CC(N)=O)NC(=O)[C@H](CO)NC(=O)[C@@H]3CCCN3C(=O)[C@H](CC(N)=O)NC(=O)[C@@H]3CSSC[C@H](NC(=O)[C@H](C(C)C)NC(=O)[C@H](CC(C)C)NC(=O)[C@H](CCCCN)NC(=O)[C@H](CO)NC(=O)[C@H](CO)NC(=O)[C@H](CCCCN)NC(=O)[C@H](CSSC[C@H](NC(=O)[C@@H](N)CCC(=O)O)C(=O)N[C@@H](CC(C)C)C(=O)N[C@@H](CCC(=O)O)C(=O)N[C@@H]([C@@H](C)CC)C(=O)N[C@@H](Cc4ccccc4)C(=O)N[C@@H](CCCCN)C(=O)N[C@@H](C)C(=O)N3)NC2=O)C(=O)N[C@@H](CO)C(=O)N[C@@H](CCCNC(=N)N)C(=O)N[C@@H](CCCCN)C(=O)N[C@@H]([C@@H](C)O)C(=O)N[C@@H](CCCNC(=N)N)C(=O)N[C@@H](Cc2c[nH]c3ccccc23)C(=O)N1)C(=O)O`, the half-maximal inhibitory concentration (IC50) stood at 33 nM in series [3], 25000 nM in series [1] and 3900 nM in series [2].
The matching figures for `N=C(N)NCCC[C@@H]1NC(=O)[C@H](CO)NC(=O)[C@H](Cc2c[nH]cn2)NC(=O)[C@H](CC(=O)O)NC(=O)[C@H](CCCNC(=N)N)NC(=O)[C@H]2CSSC[C@@H]3NC(=O)[C@@H](N)CSSC[C@H](NC1=O)C(=O)N[C@H](C(=O)O)CSSC[C@H](NC(=O)[C@H](CC(N)=O)NC3=O)C(=O)N[C@@H](CO)C(=O)N[C@@H](CO)C(=O)N[C@@H](CCCCN)C(=O)N[C@@H](Cc1c[nH]c3ccccc13)C(=O)N2`: 460 nM, above 25000 nM and 20 nM.
Regarding `CC[C@H](C)[C@@H]1NC(=O)[C@@H]2CSSC[C@@H]3NC(=O)[C@H](C(C)C)NC(=O)[C@H](CC(C)C)NC(=O)[C@H](CC(N)=O)NC(=O)[C@@H]4CCCN4C(=O)[C@H](CCCNC(=N)N)NC(=O)[C@H](CSSC[C@H](NC(=O)[C@@H](N)CC(=O)O)C(=O)N[C@@H](CC(C)C)C(=O)NCC(=O)N[C@@H](C)C(=O)N[C@@H](CCSC)C(=O)N[C@@H](CCCNC(=N)N)C(=O)N[C@@H](CCCCN)C(=O)N2)NC(=O)[C@H](CSSC[C@@H](C(=O)N[C@@H](CCCCN)C(=O)N[C@@H](Cc2ccc(O)cc2)C(=O)N[C@H](C(=O)N[C@@H](Cc2ccccc2)C(N)=O)C(C)C)NC(=O)[C@H](Cc2c[nH]c4ccccc24)NC(=O)[C@H](CCCCN)NC(=O)[C@H](Cc2cnc[nH]2)NC(=O)[C@H]([C@@H](C)O)NC(=O)[C@H](CCCNC(=N)N)NC(=O)[C@H](CO)NC3=O)NC(=O)[C@H](CCCCN)NC(=O)[C@H](CC(=O)O)NC(=O)[C@H](CC(N)=O)NC(=O)[C@H](CC(=O)O)NC(=O)[C@@H]2CCCN2C1=O` (H-DCLGAMRKCIPDNDKCCRPNLVCSRTHKWCKYVF-NH2; disulfide 2-17, 9-23, 16-30), the IC50 in series [3] was 630 nM; in series [1] it was 27000 nM; in series [4] it was 22.6 nM; in series [5], 27 nM. Also, the remaining at 24 h in series [6] and in series [7] was 99% in each case.
As for `CC[C@H](C)[C@@H]1NC(=O)CNC(=O)[C@H](CC(C)C)NC(=O)[C@@H](NC(=O)[C@@H](N)CC(=O)O)CSSC[C@@H]2NC(=O)[C@@H]3CSSC[C@@H](C(=O)N[C@@H](CCCCN)C(=O)N[C@@H](Cc4ccc(O)cc4)C(=O)N[C@H](C(=O)N[C@@H](Cc4ccccc4)C(N)=O)C(C)C)NC(=O)[C@H](Cc4c[nH]c5ccccc45)NC(=O)[C@H](CCCCN)NC(=O)[C@H](Cc4cnc[nH]4)NC(=O)[C@H]([C@@H](C)O)NC(=O)[C@H](CCCNC(=N)N)NC(=O)[C@H](CO)NC(=O)[C@H](CSSC[C@H](NC(=O)[C@H](CCCCN)NC(=O)[C@H](CCCNC(=N)N)NC(=O)[C@H](CCSC)NC1=O)C(=O)N[C@@H]([C@@H](C)CC)C(=O)N1CCC[C@H]1C(=O)N[C@@H](CC(=O)O)C(=O)N[C@@H](CC(N)=O)C(=O)N[C@@H](CC(=O)O)C(=O)N[C@@H](CCCCN)C(=O)N3)NC(=O)[C@H](C(C)C)NC(=O)[C@H](CC(C)C)NC(=O)[C@H](CC(N)=O)NC(=O)[C@@H]1CCCN1C(=O)[C@H](CCCNC(=N)N)NC2=O` (H-DCLGIMRKCIPDNDKCCRPNLVCSRTHKWCKYVF-NH2; disulfide 2-17, 9-23, 16-30), the IC50 in series [3] was 9 nM; in series [1] it was above 10000 nM.
The matching figures for `CC[C@H](C)[C@@H]1NC(=O)[C@@H]2CSSC[C@@H]3NC(=O)[C@H](C(C)C)NC(=O)[C@H](CC(C)C)NC(=O)[C@H](CC(N)=O)NC(=O)[C@@H]4CCCN4C(=O)[C@H](CCCNC(=N)N)NC(=O)[C@H](CSSC[C@H](NC(=O)[C@@H](N)CC(=O)O)C(=O)N[C@@H](CC(C)C)C(=O)NCC(=O)N[C@@H](CC(C)C)C(=O)N[C@@H](CCSC)C(=O)N[C@@H](CCCNC(=N)N)C(=O)N[C@@H](CCCCN)C(=O)N2)NC(=O)[C@H](CSSC[C@@H](C(=O)N[C@@H](CCCCN)C(=O)N[C@@H](Cc2ccc(O)cc2)C(=O)N[C@H](C(=O)N[C@@H](Cc2ccccc2)C(N)=O)C(C)C)NC(=O)[C@H](Cc2c[nH]c4ccccc24)NC(=O)[C@H](CCCCN)NC(=O)[C@H](Cc2cnc[nH]2)NC(=O)[C@H]([C@@H](C)O)NC(=O)[C@H](CCCNC(=N)N)NC(=O)[C@H](CO)NC3=O)NC(=O)[C@H](CCCCN)NC(=O)[C@H](CC(=O)O)NC(=O)[C@H](CC(N)=O)NC(=O)[C@H](CC(=O)O)NC(=O)[C@@H]2CCCN2C1=O` (H-DCLGLMRKCIPDNDKCCRPNLVCSRTHKWCKYVF-NH2; disulfide 2-17, 9-23, 16-30): 5 nM and above 10000 nM.
The like results for `CC[C@H](C)[C@@H]1NC(=O)[C@@H]2CSSC[C@@H]3NC(=O)[C@H](C(C)C)NC(=O)[C@H](CC(C)C)NC(=O)[C@H](CC(N)=O)NC(=O)[C@@H]4CCCN4C(=O)[C@H](CCCNC(=N)N)NC(=O)[C@H](CSSC[C@H](NC(=O)[C@@H](N)CC(=O)O)C(=O)N[C@@H](CC(C)C)C(=O)NCC(=O)N[C@@H](C(C)C)C(=O)N[C@@H](CCSC)C(=O)N[C@@H](CCCNC(=N)N)C(=O)N[C@@H](CCCCN)C(=O)N2)NC(=O)[C@H](CSSC[C@@H](C(=O)N[C@@H](CCCCN)C(=O)N[C@@H](Cc2ccc(O)cc2)C(=O)N[C@H](C(=O)N[C@@H](Cc2ccccc2)C(N)=O)C(C)C)NC(=O)[C@H](Cc2c[nH]c4ccccc24)NC(=O)[C@H](CCCCN)NC(=O)[C@H](Cc2cnc[nH]2)NC(=O)[C@H]([C@@H](C)O)NC(=O)[C@H](CCCNC(=N)N)NC(=O)[C@H](CO)NC3=O)NC(=O)[C@H](CCCCN)NC(=O)[C@H](CC(=O)O)NC(=O)[C@H](CC(N)=O)NC(=O)[C@H](CC(=O)O)NC(=O)[C@@H]2CCCN2C1=O` (H-DCLGVMRKCIPDNDKCCRPNLVCSRTHKWCKYVF-NH2; disulfide 2-17, 9-23, 16-30) were, in that order, 19 nM and above 10000 nM.
